This is an account of results in patent publication US10300226B2, “Rescue inhaler” (priority 2015, dated 2019).

The conditions of series [1]: cited from earlier work; for density: 25 degrees Celsius (dry air: no temperature given); for gas density: standard temperature and atmospheric pressure, gram molecular weight/22.4.
Series [2] in a line: density of reference gases and prior-art heliox. The series is classed as physicochemical.

The structures appear in SMILES notation. Several values for one entry are separate records, joined by “and”; a condition that tells them apart may be missing. Equal entries are not always repeated.

As to `[He]` [Helium], in series [1], the density is 0.1787 kg/m^3; the gas density is 0.1785 g/L and 0.178 g/L.
On to `N#N` [Example N2, nitrogen], for which, in series [1], the density was 1.2506 kg/m^3 and the gas density was 1.25 g/L.
Consider `O=O` [oxygen], for which, in series [1], the density was 1.429 kg/m^3 and the gas density is recorded as 1.428 g/L. Besides, the density of oxygen in series [2] (24 degree Celsius and 742 torr, d=molar mass x p/RT) came to 1.28 g/L. The “density of oxygen (D=P/RT)” value in series [2] (T 273K, P 130000) is reported as 1.79 g/L.
